# Results taken from the supplement of paper PMC10307832.
# Assays:
# Assay in all cases: relative viability (nuclei count vs DMSO), 5 days (fraction); higher = more cells survive
# NCI-H520 = system: NCI-H520
# Method in brief: (§1)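 For relative viability, nuclei counts in treated wells were divided by those in vehicle wells. Lung cancer cell lines had been pin-tool dosed in 1536-well plates the day after seeding and cultured for 5 days, then fixed and stained in one step (final 0.05% Triton X-100, 1% formaldehyde, 1 ug/ml Hoechst) and imaged at 4×. Doses were one drug alone or a fixed anchor-drug dose plus five library-drug doses (not always all listed) in √10 steps, and values are duplicate-plate medians.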
# NCI-H661 = system: NCI-H661
# Method in brief: as §1
# NCI-H2342 = system: NCI-H2342
# Method in brief: as §1
# ChaGo-K-1 = system: ChaGo-K-1
# Method in brief: as §1
# NCI-H1666 = system: NCI-H1666
# Method in brief: as §1
# NCI-H2170 = system: NCI-H2170
# Method in brief: as §1
# HOP-62 = system: HOP-62
# Method in brief: as §1
# NCI-H838 = system: NCI-H838
# Method in brief: as §1
# NCI-H1993 = system: NCI-H1993
# Method in brief: as §1
# CAL-12T = system: CAL-12T
# Method in brief: as §1
# NCI-H2085 = system: NCI-H2085
# Method in brief: as §1
# NCI-H1355 = system: NCI-H1355
# Method in brief: as §1
# NCI-H1734 = system: NCI-H1734
# Method in brief: as §1
# COR-L23 = system: COR-L23
# Method in brief: as §1
# RERF-LC-KJ = system: RERF-LC-KJ
# Method in brief: as §1
# NCI-H1651 = system: NCI-H1651
# Method in brief: as §1
# NCI-H322M = system: NCI-H322M
# Method in brief: as §1
# 201T = system: 201T
# Method in brief: as §1
# LC-2-ad = system: LC-2-ad
# Method in brief: as §1
# NCI-H1944 = system: NCI-H1944
# Method in brief: as §1
# NCI-H2228 = system: NCI-H2228
# Method in brief: as §1
# NCI-H1395 = system: NCI-H1395
# Method in brief: as §1
smiles,measurement,setting,value
COCC1(CO)C(=O)C2CCN1CC2 (stereo not drawn) [PRIMA-1MET] + COc1cccc2cc(-c3nc([C@H]4CC[C@H](C(=O)O)CC4)n4ncnc(N)c34)[nH]c12 [OSI-027] (partner 0.5 µM),relative viability,NCI-H520; first compound 0.2 µM,0.31
same,relative viability,NCI-H520; first compound 0.6325 µM,0.213
same,relative viability,NCI-H520; first compound 2 µM,0.169
same,relative viability,NCI-H520; first compound 6.325 µM,0.197
same,relative viability,NCI-H520; first compound 20 µM,0.143
same,relative viability,NCI-H661; first compound 0.2 µM,0.747
same,relative viability,NCI-H661; first compound 0.6325 µM,0.65
same,relative viability,NCI-H661; first compound 2 µM,0.617
same,relative viability,NCI-H661; first compound 6.325 µM,0.749
same,relative viability,NCI-H661; first compound 20 µM,0.622
same,relative viability,NCI-H2342; first compound 0.2 µM,0.598
same,relative viability,NCI-H2342; first compound 0.6325 µM,0.59
same,relative viability,NCI-H2342; first compound 2 µM,0.483
same,relative viability,NCI-H2342; first compound 6.325 µM,0.595
same,relative viability,NCI-H2342; first compound 20 µM,0.565
same,relative viability,ChaGo-K-1; first compound 0.2 µM,0.581
same,relative viability,ChaGo-K-1; first compound 0.6325 µM,0.518
same,relative viability,ChaGo-K-1; first compound 2 µM,0.522
same,relative viability,ChaGo-K-1; first compound 6.325 µM,0.53
same,relative viability,ChaGo-K-1; first compound 20 µM,0.448
same,relative viability,NCI-H1666; first compound 0.2 µM,0.791
same,relative viability,NCI-H1666; first compound 0.6325 µM,0.87
same,relative viability,NCI-H1666; first compound 2 µM,0.827
same,relative viability,NCI-H1666; first compound 6.325 µM,0.826
same,relative viability,NCI-H1666; first compound 20 µM,0.714
same,relative viability,NCI-H2170; first compound 0.2 µM,0.494
same,relative viability,NCI-H2170; first compound 0.6325 µM,0.634
same,relative viability,NCI-H2170; first compound 2 µM,0.722
same,relative viability,NCI-H2170; first compound 6.325 µM,0.718
same,relative viability,NCI-H2170; first compound 20 µM,0.713
same,relative viability,HOP-62; first compound 0.2 µM,0.965
same,relative viability,HOP-62; first compound 0.6325 µM,0.808
same,relative viability,HOP-62; first compound 2 µM,0.757
same,relative viability,HOP-62; first compound 6.325 µM,0.88
same,relative viability,HOP-62; first compound 20 µM,0.754
same,relative viability,NCI-H838; first compound 0.2 µM,0.428
same,relative viability,NCI-H838; first compound 0.6325 µM,0.5
same,relative viability,NCI-H838; first compound 2 µM,0.295
same,relative viability,NCI-H838; first compound 6.325 µM,0.395
same,relative viability,NCI-H838; first compound 20 µM,0.0935
same,relative viability,NCI-H1993; first compound 0.2 µM,0.569
same,relative viability,NCI-H1993; first compound 0.6325 µM,0.561
same,relative viability,NCI-H1993; first compound 2 µM,0.518
same,relative viability,NCI-H1993; first compound 6.325 µM,0.532
same,relative viability,NCI-H1993; first compound 20 µM,0.49
same,relative viability,CAL-12T; first compound 0.2 µM,0.7
same,relative viability,CAL-12T; first compound 0.6325 µM,0.608
same,relative viability,CAL-12T; first compound 2 µM,0.807
same,relative viability,CAL-12T; first compound 6.325 µM,0.798
same,relative viability,CAL-12T; first compound 20 µM,0.106
same,relative viability,NCI-H2085; first compound 0.2 µM,0.707
same,relative viability,NCI-H2085; first compound 0.6325 µM,0.665
same,relative viability,NCI-H2085; first compound 2 µM,0.315
same,relative viability,NCI-H2085; first compound 6.325 µM,0.548
same,relative viability,NCI-H2085; first compound 20 µM,0.194
same,relative viability,NCI-H1355; first compound 0.2 µM,0.361
same,relative viability,NCI-H1355; first compound 0.6325 µM,0.353
same,relative viability,NCI-H1355; first compound 2 µM,0.316
same,relative viability,NCI-H1355; first compound 6.325 µM,0.389
same,relative viability,NCI-H1355; first compound 20 µM,0.406
same,relative viability,NCI-H1734; first compound 0.2 µM,0.709
same,relative viability,NCI-H1734; first compound 0.6325 µM,0.508
same,relative viability,NCI-H1734; first compound 2 µM,0.413
same,relative viability,NCI-H1734; first compound 6.325 µM,0.532
same,relative viability,NCI-H1734; first compound 20 µM,0.0554
same,relative viability,COR-L23; first compound 0.2 µM,0.892
same,relative viability,COR-L23; first compound 0.6325 µM,0.679
same,relative viability,COR-L23; first compound 2 µM,0.728
same,relative viability,COR-L23; first compound 6.325 µM,0.744
same,relative viability,COR-L23; first compound 20 µM,0.0162
same,relative viability,RERF-LC-KJ; first compound 0.2 µM,0.56
same,relative viability,RERF-LC-KJ; first compound 0.6325 µM,0.625
same,relative viability,RERF-LC-KJ; first compound 2 µM,0.54
same,relative viability,RERF-LC-KJ; first compound 6.325 µM,0.662
same,relative viability,RERF-LC-KJ; first compound 20 µM,0.588
same,relative viability,NCI-H1651; first compound 0.2 µM,0.801
same,relative viability,NCI-H1651; first compound 0.6325 µM,0.756
same,relative viability,NCI-H1651; first compound 2 µM,0.636
same,relative viability,NCI-H1651; first compound 6.325 µM,0.669
same,relative viability,NCI-H1651; first compound 20 µM,0.701
same,relative viability,NCI-H322M; first compound 0.2 µM,0.494
same,relative viability,NCI-H322M; first compound 0.6325 µM,0.289
same,relative viability,NCI-H322M; first compound 6.325 µM,0.57
same,relative viability,NCI-H322M; first compound 20 µM,0.13
same,relative viability,201T; first compound 0.2 µM,0.82
same,relative viability,201T; first compound 0.6325 µM,0.702
same,relative viability,201T; first compound 2 µM,0.591
same,relative viability,201T; first compound 6.325 µM,0.759
same,relative viability,201T; first compound 20 µM,0.747
same,relative viability,LC-2-ad; first compound 0.2 µM,0.854
same,relative viability,LC-2-ad; first compound 2 µM,0.729
same,relative viability,LC-2-ad; first compound 6.325 µM,0.898
same,relative viability,LC-2-ad; first compound 20 µM,0.819
same,relative viability,NCI-H1944; first compound 0.2 µM,0.408
same,relative viability,NCI-H1944; first compound 0.6325 µM,0.359
same,relative viability,NCI-H1944; first compound 2 µM,0.3
same,relative viability,NCI-H1944; first compound 6.325 µM,0.409
same,relative viability,NCI-H1944; first compound 20 µM,0.393
same,relative viability,NCI-H2228; first compound 0.2 µM,0.578
same,relative viability,NCI-H2228; first compound 0.6325 µM,0.462
same,relative viability,NCI-H2228; first compound 2 µM,0.442
same,relative viability,NCI-H2228; first compound 6.325 µM,0.481
same,relative viability,NCI-H2228; first compound 20 µM,0.0285
same,relative viability,NCI-H1395; first compound 0.2 µM,0.605
same,relative viability,NCI-H1395; first compound 0.6325 µM,0.492
same,relative viability,NCI-H1395; first compound 2 µM,0.647
same,relative viability,NCI-H1395; first compound 6.325 µM,0.659
same,relative viability,NCI-H1395; first compound 20 µM,0.6
